{"source": "patent US9840510B1", "about": "“Pyrazolo[1,5-a]pyrimidinyl carboxamide compounds and their use in the treatment of medical disorders” (Lysosomal Therapeutics Inc., priority 2016, dated 2017)", "key": {"[1]": {"molecular_target": "T1, glucocerebrosidase (Gcase) (Homo sapiens, UniProt P04062)", "T1 sequence (P04062 40-536)": "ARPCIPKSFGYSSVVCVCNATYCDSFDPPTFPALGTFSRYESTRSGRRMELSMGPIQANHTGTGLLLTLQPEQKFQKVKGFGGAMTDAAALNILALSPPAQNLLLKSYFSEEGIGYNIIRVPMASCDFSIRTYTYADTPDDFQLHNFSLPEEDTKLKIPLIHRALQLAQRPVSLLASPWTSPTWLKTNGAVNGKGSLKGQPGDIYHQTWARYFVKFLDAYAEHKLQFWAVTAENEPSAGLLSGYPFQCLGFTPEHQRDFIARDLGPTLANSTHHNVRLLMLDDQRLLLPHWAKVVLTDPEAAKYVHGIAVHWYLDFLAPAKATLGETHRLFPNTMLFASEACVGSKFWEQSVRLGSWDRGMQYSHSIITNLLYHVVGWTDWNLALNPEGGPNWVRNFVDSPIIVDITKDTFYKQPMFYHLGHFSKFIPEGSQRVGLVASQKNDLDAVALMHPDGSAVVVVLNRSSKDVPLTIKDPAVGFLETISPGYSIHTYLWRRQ", "assay": "Glucocerebrosidase (Gcase) activation assay, 4-methylumbelliferyl-beta-D-glucopyranoside substrate, fluorescence endpoint", "format": "biochemical", "details": "for Percent Gcase Activation, 0.1 μM Test Compound: test compound at 0.1 μM; for Percent Gcase Activation, 1 μM Test Compound: test compound at 1.0 μM", "experimental": "The ability of exemplary compounds to activate glucocerebrosidase (Gcase) was measured.\nA 484 μL aliquot of a 1.0 mg/mL solution of phosphatidylserine (PS) (Sigma P7769) in chloroform was evaporated under a stream of nitrogen for 1 hour. The lipid film was dissolved over 4 minutes of vigorous vortexing in 40 mL of 176 mM K2HPO4/50 mM citric acid (pH 4.7) containing 7.5 μL of triton X-100, resulting in a mixed micellar preparation with a composition of 0.32 mM triton and 0.37 mol % PS. 4-Methylumbelliferyl-beta-D-glucopyranoside (ACROS-337025000) was dissolved in the micellar solution to a final concentration of 2 mM for use as the reaction substrate.\nTest compounds were diluted to the desired concentrations with dimethylsulfoxide (DMSO) from 10 mM stocks, and 0.41 μL of the DMSO compound mixture was added to 100 μL of micellar solution containing 10 nM GCase and 100 nM saposin C (Enzo ALX-201-262-C050). Pre-incubation was allowed to occur for 30 minutes at room temperature, after which the reaction was initiated by combining 25 μL of substrate solution with 25 μL of compound/GCase/saposin mixture. The reaction proceeded for 15 minutes at room temperature and was stopped by adding 150 μL of 1M glycine, pH 12.5. The endpoint of the reaction was monitored by measuring fluorescence intensity (excitation: 365 nm; emission: 440 nm) on a SpectraMax i3 instrument (Molecular Devices). Test compounds were screened at 1.0 and 0.1 μM final concentration, and subsequent 8-point dose response curves were obtained using 3-fold dilutions from a maximum final concentration of 5 μM."}, "[2]": {"assay": "Compound solubility in water", "format": "physicochemical"}}}
{"smiles": "COc1cccc(-c2cc(C)n3ncc(C(=O)NC(C4CC4)C(F)(F)F)c3n2)c1", "note": "(stereo not drawn) [III-105]", "values": [{"measurement": "Percent Gcase Activation, 0.1 μM Test Compound", "setting": "[1]", "value": "*** (greater than 20% Gcase activation)"}, {"measurement": "Percent Gcase Activation, 1 μM Test Compound", "setting": "[1]", "value": "+++ (Gcase activation greater than 60%)"}, {"measurement": "solubility", "setting": "[2]", "value": 0.08, "unit": "µg/mL"}]}
{"smiles": "Cc1cc(-c2cccc(F)n2)nc2c(C(=O)NC(C)C3CC3)cnn12", "note": "(stereo not drawn) [III-130]", "values": [{"measurement": "Percent Gcase Activation, 0.1 μM Test Compound", "setting": "[1]", "value": "*** (greater than 20% Gcase activation)"}, {"measurement": "Percent Gcase Activation, 1 μM Test Compound", "setting": "[1]", "value": "+++ (Gcase activation greater than 60%)"}, {"measurement": "solubility", "setting": "[2]", "value": 0.2, "unit": "µg/mL"}]}
{"smiles": "Cc1cc(-c2ccc(Cl)cn2)nc2c(C(=O)N[C@@H](C3CC3)C(F)(F)F)cnn12", "note": "[III-118]", "values": [{"measurement": "Percent Gcase Activation, 0.1 μM Test Compound", "setting": "[1]", "value": "*** (greater than 20% Gcase activation)"}, {"measurement": "Percent Gcase Activation, 1 μM Test Compound", "setting": "[1]", "value": "+++ (Gcase activation greater than 60%)"}, {"measurement": "solubility", "setting": "[2]", "value": 0.4, "unit": "µg/mL"}]}
